# Data taken from patent publication US20240174690A1, “ANNULATED 2-AMINO-3-CYANO THIOPHENES AND DERIVATIVES FOR THE TREATMENT OF CANCER” (BOEHRINGER INGELHEIM INTERNATIONAL GMBH, priority 2021, published 2024).
# Assays:
# [1] = Caco-2 assay (permeability PappAB, PappBA, efflux ratio); format: in vitro ADME; conditions: human, Caco-2, 10 μM test compound, pH 7.4; for Papp A→B at 90 min, 10 μM: apical to basolateral; for efflux ratio at 90 min, 10 μM: efflux ratio PappBA/PappAB, read-out: Caco ER
# Method in brief: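 Confluent Caco-2 monolayers on filter supports, 0.25% BSA in both donor and receiver buffer; transport measured a-b and b-a. After 25-30 min preincubation at 37 °C, samples at 0, 30, 60, 90 min quantified by HPLC/MS/MS. Papp from receiver amount per time, filter area and initial donor concentration; efflux ratio = PappBA/PappAB.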
# [2] = target: KRAS (G12D)::SOS1 (Homo sapiens (Human), UniProt P01116, G12D); test: KRAS::SOS1 AlphaScreen binding assay, KRAS G12D
# Method in brief: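 AlphaScreen measurement of compound disruption of biotinylated, GDP-loaded KRAS 1-169 (10 nM; G12C 7.5 nM) binding to GST-SOS1 564-1049 (5 nM with G12D/G12C, 10 nM otherwise), with 10 μM GDP in PBS/0.1% BSA/0.05% Tween 20. Timing was 30 min compound preincubation, then 60 min with beads at room temperature; top concentration 100 μM, 4-parameter IC50.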
# KRAS (G12D)::SOS1, sequence (P01116 other isoform, or with tags, fused parts or gaps G12D): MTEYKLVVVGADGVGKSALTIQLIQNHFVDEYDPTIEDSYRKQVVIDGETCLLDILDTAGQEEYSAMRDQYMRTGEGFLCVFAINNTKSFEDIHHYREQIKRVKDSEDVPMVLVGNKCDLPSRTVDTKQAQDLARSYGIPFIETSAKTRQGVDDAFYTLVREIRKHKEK
"Papp A→B at 90 min, 10 μM [1] [×10⁻⁶ cm/s]","efflux ratio at 90 min, 10 μM [1]",IC50 [2] [nM],Structure (SMILES)
0.4,47.6,2,C[C@@H]1CN(c2cc(O[C@@H](C)[C@@H]3CCCN3C)nc(-c3noc4c3CCC[C@@]43CCCc4sc(N)c(C#N)c43)n2)CCN1 [II-161]
,,1,[2H]C([2H])([2H])N1C[C@H](F)C[C@H]1[C@H](C)Oc1cc(N2CCN(C([2H])([2H])[2H])C3(CC3)C2)nc(-c2noc3c2CCC[C@@]32CCCc3sc(N)c(C#N)c32)n1 [II-207]
,2.9,1,C[C@H](Oc1nc(-c2noc3c2CCC[C@@]32CCCc3sc(N)c(C#N)c32)nc(N2CCNC3(CC3)C2)c1F)[C@@H]1C[C@@H](F)CN1C [II-155]
,,1,CO[C@H]1CCN(C)[C@@H]1[C@H](C)Oc1cc(-n2ccc(C(=O)N(C)C3COC3)n2)nc(-c2noc3c2CCC[C@@]32CCCc3sc(N)c(C#N)c32)n1 [II-199]
,2.2,1,C[C@H](Oc1cc(-n2ccc(-c3cn([C@@H]4CCOC4)nn3)n2)nc(-c2noc3c2CCC[C@@]32CCCc3sc(N)c(C#N)c32)n1)[C@@H]1CCCN1C [II-211]
,,2,C[C@H](Oc1nc(-c2noc3c2CCC[C@@]32CCCc3sc(N)c(C#N)c32)nc(N2CCN(C)C3(CC3)C2)c1Cl)[C@@H]1C[C@@H](F)CN1C [II-176]
,,22,C[C@H]1CNCCCN1c1cc(-c2ccn(C)n2)nc(-c2noc3c2CCC[C@@]32CCCc3sc(N)c(C#N)c32)n1 [II-140]
21,0.8,1,CO[C@H]1CCN(C)[C@@H]1[C@H](C)Oc1cc(N2CCN(C)C3(CC3)C2)nc(-c2noc3c2CCC[C@@]32CCCc3sc(N)c(C#N)c32)n1 [II-186]
,,12,C[C@H](Oc1cc(N2Cc3cnn(C)c3C2)nc(-c2onc3c2CCC[C@@]32CCCc3sc(N)c(C#N)c32)n1)[C@@H]1CCCN1C [I-19]
,1.3,6,C[C@H](Oc1cc(-n2cc(-c3cncs3)nn2)nc(-c2noc3c2CCC[C@@]32CCCc3sc(N)c(C#N)c32)n1)[C@@H]1CCCN1C [II-125]
,,1,C[C@H](Oc1cc(-n2cc3c(n2)CNC3)nc(-c2noc3c2CCC[C@@]32CCCc3sc(N)c(C#N)c32)n1)[C@@H]1C[C@@H](F)CN1C [II-154]
4.2,5.2,3,C[C@H](Oc1cc(-c2ccn(C[C@H]3CCOC3)n2)nc(-c2noc3c2CCC[C@@]32CCCc3sc(N)c(C#N)c32)n1)[C@@H]1CCCN1C [II-129]
3.3,7,9,CC(C)N1CCCN(c2cc(-c3ccn(C)n3)nc(-c3noc4c3CCC[C@@]43CCCc4sc(N)c(C#N)c43)n2)[C@@H](C)C1 [II-170]
,,25,C[C@H]1CNCCCN1c1cc(-n2ccnc2)nc(-c2noc3c2CCC[C@@]32CCCc3sc(N)c(C#N)c32)n1 [II-142]
3,8.2,1,C[C@H](Oc1cc(N2CCN(C)C3(CC3)C2)nc(-c2noc3c2CCC[C@@]32CCCc3sc(N)c(C#N)c32)n1)[C@@H]1CCCN1C [II-171]
,1.4,2,C[C@H](Oc1cc(-n2ccc(-c3cnccn3)n2)nc(-c2noc3c2CCC[C@@]32CCCc3sc(N)c(C#N)c32)n1)[C@@H]1CCCN1C [II-130]
,2.9,1,C[C@H](Oc1cc(-n2ccc(-c3cn([C@H]4CCOC4)nn3)n2)nc(-c2noc3c2CCC[C@@]32CCCc3sc(N)c(C#N)c32)n1)[C@@H]1CCCN1C [II-212]
18,1.8,2,CO[C@H]1CCN(C)[C@@H]1[C@H](C)Oc1cc(-n2ccc(C(N)=O)n2)nc(-c2noc3c2CCC[C@@]32CCCc3sc(N)c(C#N)c32)n1 [II-201]
17,1.2,3,C[C@H](Oc1cc(-n2cncn2)nc(-c2onc3c2CCC[C@@]32CCCc3sc(N)c(C#N)c32)n1)[C@@H]1CCCN1C [I-18]
,,6,COc1c(O[C@@H](C)[C@@H]2CCCN2C)nc(-c2noc3c2CCC[C@@]32CCCc3sc(N)c(C#N)c32)nc1-n1ccc(C(N)=O)n1 [II-159]
10,2.5,1,C[C@H](Oc1cc(-n2ccc(C(=O)N[C@@H]3CCOC3)n2)nc(-c2noc3c2CCC[C@@]32CCCc3sc(N)c(C#N)c32)n1)[C@@H]1CCCN1C [II-192]
,0.4,2,C[C@@H]1CN(c2nc(-c3noc4c3CCC[C@@]43CCCc4sc(N)c(C#N)c43)nc(O[C@@H](C)[C@@H]3C[C@@H](F)CN3C)c2F)CC2(CC2)N1 [II-158]
,2.3,1,CO[C@H]1CCN(C)[C@@H]1[C@H](C)Oc1cc(N2CCNC3(CC3)C2)nc(-c2noc3c2CCC[C@@]32CCCc3sc(N)c(C#N)c32)n1 [II-184]

"Papp A→B at 90 min, 10 μM [1] [×10⁻⁶ cm/s]","efflux ratio at 90 min, 10 μM [1]",IC50 [2] [nM],Structure (SMILES)
6.8,4.9,3,C[C@H](Oc1cc(-n2cc(C(=O)N(C)C)nn2)nc(-c2noc3c2CCC[C@@]32CCCc3sc(N)c(C#N)c32)n1)[C@@H]1CCCN1C [II-132]
5.4,4.6,1,CO[C@@H]1C[C@@H]([C@H](C)Oc2cc(N3CCNC4(CC4)C3)nc(-c3noc4c3CCC[C@@]43CCCc4sc(N)c(C#N)c43)n2)N(C)C1 [II-187]
,,1,CO[C@H]1CCN(C)[C@@H]1[C@H](C)Oc1cc(-n2ccc(C(=O)N[C@@H](C)c3ccccn3)n2)nc(-c2noc3c2CCC[C@@]32CCCc3sc(N)c(C#N)c32)n1 [II-196]
7.1,5.5,1,CC(C)NC(=O)Cc1ccn(-c2cc(O[C@@H](C)[C@@H]3CCCN3C)nc(-c3noc4c3CCC[C@@]43CCCc4sc(N)c(C#N)c43)n2)n1 [II-182]
,5.8,1,C[C@H](Oc1cc(-n2cc3c(n2)CN(C)C3)nc(-c2noc3c2CCC[C@@]32CCCc3sc(N)c(C#N)c32)n1)[C@@H]1CCCN1C [II-174]
,,2,C[C@H](Oc1cc(-n2cc3ccn([C@@H]4CCOC4)c(=O)c3n2)nc(-c2noc3c2CCC[C@@]32CCCc3sc(N)c(C#N)c32)n1)[C@@H]1CCCN1C [II-203]
,,2,C[C@H](Oc1cc(-c2cn(C)nn2)nc(-c2onc3c2CCC[C@@]32CCCc3sc(N)c(C#N)c32)n1)[C@@H]1CCCN1C [I-16]
,,1,CO[C@H]1CCN(C)[C@@H]1[C@H](C)Oc1cc(-n2ccc(C(=O)N[C@H]3CCOC3)n2)nc(-c2noc3c2CCC[C@@]32CCCc3sc(N)c(C#N)c32)n1 [II-198]
,,8,C[C@H](Oc1cc(-n2cc3ccn([C@@H](C)c4ccccn4)c(=O)c3n2)nc(-c2noc3c2CCC[C@@]32CCCc3sc(N)c(C#N)c32)n1)[C@@H]1CCCN1C [II-205]
,,1,CC(C)[C@@H]1CN(c2cc(O[C@@H](C)[C@@H]3CCCN3C)nc(-c3noc4c3CCC[C@@]43CCCc4sc(N)c(C#N)c43)n2)CCN1 [II-166]
,,1,C[C@H](Oc1cc([C@H]2CCNC2)nc(-c2noc3c2CCC[C@@]32CCCc3sc(N)c(C#N)c32)n1)[C@@H]1CCCN1C [II-163]
,,1,CNC1CCN(c2cc(O[C@@H](C)[C@@H]3CCCN3C)nc(-c3noc4c3CCC[C@@]43CCCc4sc(N)c(C#N)c43)n2)CC1 [II-214]
,,15,CO[C@@H]1C[C@@H]([C@H](C)Oc2cc(-c3cnn(C)n3)nc(-c3onc4c3CCC[C@@]43CCCc4sc(N)c(C#N)c43)n2)N(C)C1 [I-17]
,,348,C[C@H]1CNCCCN1c1nc(-c2onc3c2CCC[C@@]32CCCc3sc(N)c(C#N)c32)cc(C(F)(F)F)n1 [I-15]
,,1,CO[C@H]1CCN(C)[C@@H]1[C@H](C)Oc1cc(-n2ccc(C(=O)N[C@@H]3CCOC3)n2)nc(-c2noc3c2CCC[C@@]32CCCc3sc(N)c(C#N)c32)n1 [II-197]
,,6,C[C@H](Oc1cc(-c2cccc(C(N)=O)c2)nc(-c2noc3c2CCC[C@@]32CCCc3sc(N)c(C#N)c32)n1)[C@@H]1CCCN1C [II-133]
,,1,CCN1CCN(c2cc(O[C@@H](C)[C@@H]3C[C@@H](F)CN3C)nc(-c3noc4c3CCC[C@@]43CCCc4sc(N)c(C#N)c43)n2)CC12CC2 [II-185]
,,2,CC(=O)N1CCN(c2cc(O[C@@H](C)[C@@H]3CCCN3C)nc(-c3noc4c3CCC[C@@]43CCCc4sc(N)c(C#N)c43)n2)CC12CC2 [II-178]
,,2,C[C@H](Oc1cc(-n2cc3ccn(C[C@H]4CCOC4)c(=O)c3n2)nc(-c2noc3c2CCC[C@@]32CCCc3sc(N)c(C#N)c32)n1)[C@@H]1CCCN1C [II-204]
,,1,COCCNC(=O)c1ccn(-c2cc(O[C@@H](C)[C@@H]3[C@@H](OC)CCN3C)nc(-c3noc4c3CCC[C@@]43CCCc4sc(N)c(C#N)c43)n2)n1 [II-200]
,,2,C[C@H](Oc1cc(-c2ccn(Cc3ncco3)n2)nc(-c2noc3c2CCC[C@@]32CCCc3sc(N)c(C#N)c32)n1)[C@@H]1CCCN1C [II-128]
,,1,CO[C@H]1CCN(C)[C@@H]1[C@H](C)Oc1cc(-n2ccc(CC(=O)NC(C)C)n2)nc(-c2noc3c2CCC[C@@]32CCCc3sc(N)c(C#N)c32)n1 [II-183]

Structure (SMILES),"Papp A→B at 90 min, 10 μM [1] [×10⁻⁶ cm/s]","efflux ratio at 90 min, 10 μM [1]",IC50 [2] [nM]
C[C@H](Oc1cc(N2CC3COCC(C2)N3)nc(-c2noc3c2CCC[C@@]32CCCc3sc(N)c(C#N)c32)n1)[C@@H]1CCCN1C [II-160],,,2
C[C@H](Oc1cc(-n2ccc(C(=O)N[C@H]3CCOC3)n2)nc(-c2noc3c2CCC[C@@]32CCCc3sc(N)c(C#N)c32)n1)[C@@H]1CCCN1C [II-193],,,1
